Source: patent EP1113726B1, “USE OF NEOHESPERIDIN DIHYDROCHALCONE FOR THE MANUFACTURE OF A MEDICAMENT FOR PREVENTING OR TREATING ELEVATED BLOOD LIPID LEVEL-RELATED DISEASES” (Korea Research Institute of Bioscience and Biotechnology, priority 1998, dated 2000)

What was measured:
HMG-CoA reductase = target: T1, HMG-CoA reductase (Rattus norvegicus, UniProt P51639); assay: HMG-CoA reductase activity assay (modified Hulcher's method) on liver microsomes of the diet-fed rats; format: biochemical; details: ex vivo: liver microsomes of rats fed 1 % cholesterol plus 0.05 % neohesperidin dihydrochalcone for six weeks, versus Control group
T1 construct: the supernatant was ultracentrifuged at 100,000xg for 60 minutes to obtain microsomal precipitates; from tissue; host or cells: rat liver microsomes
T1 sequence (P51639 1-887): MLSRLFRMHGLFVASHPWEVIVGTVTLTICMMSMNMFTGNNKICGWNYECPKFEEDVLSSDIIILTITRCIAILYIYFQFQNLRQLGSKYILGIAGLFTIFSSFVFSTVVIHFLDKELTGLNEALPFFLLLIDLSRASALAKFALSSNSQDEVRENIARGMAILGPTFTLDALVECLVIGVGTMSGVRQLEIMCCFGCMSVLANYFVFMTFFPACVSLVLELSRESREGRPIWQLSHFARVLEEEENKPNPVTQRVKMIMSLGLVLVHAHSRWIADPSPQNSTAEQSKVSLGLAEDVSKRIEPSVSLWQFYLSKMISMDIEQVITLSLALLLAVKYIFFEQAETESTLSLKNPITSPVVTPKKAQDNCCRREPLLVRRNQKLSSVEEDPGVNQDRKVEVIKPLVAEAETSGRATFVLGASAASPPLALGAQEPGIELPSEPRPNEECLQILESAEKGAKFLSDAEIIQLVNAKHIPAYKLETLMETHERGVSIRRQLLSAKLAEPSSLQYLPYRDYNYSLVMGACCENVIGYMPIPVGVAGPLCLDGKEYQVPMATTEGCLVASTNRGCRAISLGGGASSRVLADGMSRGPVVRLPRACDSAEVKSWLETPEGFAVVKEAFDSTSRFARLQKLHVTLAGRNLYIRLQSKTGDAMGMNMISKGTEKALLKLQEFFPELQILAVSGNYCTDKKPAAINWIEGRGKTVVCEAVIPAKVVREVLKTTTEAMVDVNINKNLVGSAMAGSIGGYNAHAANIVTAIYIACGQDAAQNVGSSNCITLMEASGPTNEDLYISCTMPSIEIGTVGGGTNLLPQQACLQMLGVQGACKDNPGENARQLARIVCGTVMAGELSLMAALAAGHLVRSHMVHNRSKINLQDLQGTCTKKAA
Protocol: In order to determine the activity of HMG-CoA reductase, Hulcher's method was employed after some modification (see J. Lipid Res., 14, 625-641(1973)). In this method, the concentration of the coenzyme-A(CoA-SH), which is produced when HMG-CoA is reduced to a mevalonate salt by the action of HMG-CoA reductase, is determined by spectroscopy and the activity of HMG-GoA reductase is calculated therefrom.
3 g of liver tissue taken from each group of rats of Example 2 was washed succesively with 100 ml of a cold-saline(0.15M NaCl) and 100ml of a cold buffer solution A(0.1M triethanolamine, HCl/0.2M EDTA/2mM dithiothreitol(DTT)). The cold buffer solution A was added to the liver tissue in an amount of 2 ml per 1 g of the liver tissue and the mixture was homogenized with a homogenizer. The homogenate was centrifuged at 15,000xg for 15 minutes, and then, the supernatant was ultracentrifuged at 100,000xg for 60 minutes to obtain microsomal precipitates. […]
Then, the reactant was mixed with 20µl of DTNB buffer solution(3mM DTNH/0.1M triethanolamine/0.2M EDTA, pH 7.4) and the absorbance of the mixture was determined at 412nm to calculate the amount of CoA-SH(activity of HMG-CoA reductase).
The extent of inhibition of HMG-CoA reductase activity by neohesperidin dihydrochalcone was calculated based on the above result.

[1] = test system: New Zealand White rabbits; assay: Chemical analysis of blood of cholesterol-fed rabbits; format: in vivo
Protocol: 30 three-month-old New Zealand White rabbits(Yeonam Horticulture and Animal Husbandry College, Korea), each weighing about 2.5 to 2.6 kg, were raised under a condition of temperature 20±2°C, relative humidity 55±5 %, and photoperiod 12L/12D. The rabbits were divided into 3 groups and 3 groups of rabbits were fed with 3 different diets, i.e., RC4 diet(Oriental Yeast Co., Japan) containing 1 % cholesterol(Control group); 1 % cholesterol plus 1 mg/kg Lovastatin®(Merck, U.S.A.)(Lovastatin group); and 1 % cholesterol plus 0.05 % neohesperidin dihydrochalcone(Neohesperidin dihydrochalcone group), respectively. RC4 diet comprises 7.6 % moisture, 22.8 % crude protein, 2.8 % crude fat, 8.8 % crude ash, 14.4 % crude cellulose and 43.6 % soluble nitrogen-free substances. Neohesperidin dihydrochalcone was purchased from Sigma Chemical Co.(St. Louis, MO).
The rabbits were fed for 6 weeks while being allowed free access to the diets and water.
After six weeks, the rabbits were anesthetized with an intramuscular injection of ketamine (50 mg/kg) in the femoral region and sacrificed.

ICR female mice = details: mouse, oral, single dose of 1,000 mg/kg
Protocol: 12 seven-week-old, specific pathogen-free ICR female mice, six female mice each weighing about 25 to 29 g and six male mice each weighing about 34 to 38 g, were kept under an environment of 22±1°C, 55±5 % relative humidity and 12L/12D photoperiod. Fodder(Cheiljedang Co., mouse and rat fodder) and water were sterilized and fed to the mice.
Neohesperidin dihydrochalcone purchased from Aldrich-Sigma Chemical Co. (St. Louis, MO, U.S.A) was dissolved in 0.5 % Tween 80 to a concentration of 100 mg/ml, and the solution was orally administered to the mice in an amount of 0.2 ml per 20 g of mouse body weight. […] Further, on the 10th day, the mice were sacrificed and the internal organs were visually examined.

[2] = rabbit serum, 1 % cholesterol diet for 6 weeks plus 1 mg/kg Lovastatin or 0.05 % neohesperidin dihydrochalcone
[3] = rabbits, 1 % cholesterol plus 0.05 % neohesperidin dihydrochalcone, 6 weeks

`COc1ccc(CCC(=O)c2c(O)cc(O[C@@H]3O[C@H](CO)[C@@H](O)[C@H](O)[C@H]3O[C@@H]3O[C@@H](C)[C@H](O)[C@@H](O)[C@H]3O)cc2O)cc1O` [Neohesperidin dihydrochalcone] was tested, and the “Inhibition of HMG-CoA reductase activity (%)” value (HMG-CoA reductase) was 30%, the GOT [1, 2] was 53 (±23) IU/1 and the GPT [1, 2] was 42 (±20) IU/l. For the same molecule, the Total-C [1, 2] was 1293 (±89) mg/dl, the γ-GTP [1, 2] was 7.8 (±5) IU/l and the “reducing serum GOT and GPT levels, compared with Lovastatin®” value ([1]; rabbits, 1 % cholesterol diet, 6 weeks) was “more effective”. The “serum GOT level lowered, as compared to the Control group” value [1, 3] was 31%, the “serum GPT level lowered, as compared to the Control group” value [1, 3] was 35% and the “survival at day 10” value (ICR female mice) was “All the mice were alive”. The “pathological abnormality at autopsy” value (ICR female mice; autopsy on the 10th day) was “did not develop any pathological abnormality”.
